Source: patent publication US20260000642A1 (Tay Therapeutics Limited, priority 2022, published 2026)
Values joined by “and” are separate entries in the source; they are usually repeats but may differ in a detail not shown here. Equal values may be shown once.

Test system: collagen-induced arthritis in Lewis rats
Test: Collagen-induced arthritis (CIA) model in rats: body weight, paw volume, clinical scores, clinical observations
Conditions: for Animal body weight percent change / Animal body weight: Group 5 (CIA + Example 101 3 mg/kg)
[1] = Day 1, individual animals, 3 mg/kg
[2] = Day 3, individual animals, 3 mg/kg
[3] = Day 7, individual animals, 3 mg/kg

Structure (SMILES): CNC(=O)c1[nH]c(C(=O)NC2CCC2)cc1O[C@@H](C)c1ccccc1 [Example 101, N^5-cyclobutyl-N^2-methyl-3-(1-phenylethoxy)-1H-pyrrole-2,5-dicarboxamide]
- Average animal body weight percent change (Day 12, CIA + 30 mg/kg): 0.66%
- Mean animal body weight (Day 12, CIA + 30 mg/kg): 163 g
- Average animal body weight percent change (Day 13, CIA + 3 mg/kg): 7.74%
- Mean animal body weight (Day 13, CIA + 3 mg/kg): 178 g
- Average animal body weight percent change (Day 13, CIA + 10 mg/kg): 3.92%
- Mean animal body weight (Day 13, CIA + 10 mg/kg): 169 g
- Average animal body weight percent change (Day 13, CIA + 30 mg/kg): 0.18%
- Mean animal body weight (Day 13, CIA + 30 mg/kg): 162 g
- Average animal body weight percent change (Day 14, CIA + 3 mg/kg): 7.08%
- Mean animal body weight (Day 14, CIA + 3 mg/kg): 177 g
- Average animal body weight percent change (Day 14, CIA + 10 mg/kg): 4.05%
- Mean animal body weight (Day 14, CIA + 10 mg/kg): 169 g
- Average animal body weight percent change (Day 14, CIA + 30 mg/kg): 1.42%
- Mean animal body weight (Day 14, CIA + 30 mg/kg): 164 g
- Average animal body weight percent change (Day 15, CIA + 3 mg/kg): 5.15%
- Mean animal body weight (Day 15, CIA + 3 mg/kg): 173 g
- Average animal body weight percent change (Day 15, CIA + 10 mg/kg): 3.31%
- Mean animal body weight (Day 15, CIA + 10 mg/kg): 168 g
- Average animal body weight percent change (Day 15, CIA + 30 mg/kg): 2.38%
- Mean animal body weight (Day 15, CIA + 30 mg/kg): 166 g
- Average animal body weight percent change (Day 16, CIA + 3 mg/kg): 3.90%
- Mean animal body weight (Day 16, CIA + 3 mg/kg): 171 g
- Average animal body weight percent change (Day 16, CIA + 10 mg/kg): 2.23%
- Mean animal body weight (Day 16, CIA + 10 mg/kg): 166 g
- Average animal body weight percent change (Day 16, CIA + 30 mg/kg): 1.69%
- Mean animal body weight (Day 16, CIA + 30 mg/kg): 165 g
- Average animal body weight percent change (Day 17, CIA + 3 mg/kg): 3.37%
- Mean animal body weight (Day 17, CIA + 3 mg/kg): 170 g
- Average animal body weight percent change (Day 17, CIA + 10 mg/kg): 2.29%
- Mean animal body weight (Day 17, CIA + 10 mg/kg): 166 g
- Average animal body weight percent change (Day 17, CIA + 30 mg/kg): 1.41%
- Mean animal body weight (Day 17, CIA + 30 mg/kg): 164 g
- Average animal body weight percent change (Day 18, CIA + 3 mg/kg): 2.36%
- Mean animal body weight (Day 18, CIA + 3 mg/kg): 169 g
- Average animal body weight percent change (Day 18, CIA + 10 mg/kg): 1.38%
- Mean animal body weight (Day 18, CIA + 10 mg/kg): 165 g
- Average animal body weight percent change (Day 18, CIA + 30 mg/kg): 1.61%
- Mean animal body weight (Day 18, CIA + 30 mg/kg): 165 g
- Average animal body weight percent change (Day 19, CIA + 3 mg/kg): 0.91%
- Mean animal body weight (Day 19, CIA + 3 mg/kg): 166 g
- Average animal body weight percent change (Day 19, CIA + 10 mg/kg): 0.76%
- Mean animal body weight (Day 19, CIA + 10 mg/kg): 164 g
- Average animal body weight percent change (Day 19, CIA + 30 mg/kg): 1.24%
- Mean animal body weight (Day 19, CIA + 30 mg/kg): 164 g
- Average animal body weight percent change (Day 20, CIA + 3 mg/kg): 1.13%
- Mean animal body weight (Day 20, CIA + 3 mg/kg): 167 g
- Average animal body weight percent change (Day 20, CIA + 10 mg/kg): 1.30%
- Mean animal body weight (Day 20, CIA + 10 mg/kg): 164 g
- Average animal body weight percent change (Day 20, CIA + 30 mg/kg): 0.50%
- Mean animal body weight (Day 20, CIA + 30 mg/kg): 163 g
- Average animal body weight percent change (Day 21, CIA + 3 mg/kg): 1.73%
- Mean animal body weight (Day 21, CIA + 3 mg/kg): 168 g
- Average animal body weight percent change (Day 21, CIA + 10 mg/kg): 0.53%
- Mean animal body weight (Day 21, CIA + 10 mg/kg): 163 g
- Average animal body weight percent change (Day 21, CIA + 30 mg/kg): 0.50%
- Mean animal body weight (Day 21, CIA + 30 mg/kg): 163 g
- Animal body weight percent change (Day 0, individual animals): 0.00%
- Animal body weight [1]: 170 g
- Animal body weight percent change [1]: −0.58% and 0.65%
- Animal body weight percent change (Day 2, individual animals, 3 mg/kg): 0.62% and 0.56% and −1.20%
- Animal body weight [2]: 160 g and 170 g
- Animal body weight percent change [2]: −0.62% and −1.13% and −0.60%
- Animal body weight (Day 4, individual animals, 3 mg/kg): 170 g
- Animal body weight percent change (Day 5, individual animals, 3 mg/kg): 0.00%
- Animal body weight (Day 6, individual animals, 3 mg/kg): 180 g and 160 g
- Animal body weight [3]: 160 g and 180 g
- Animal body weight percent change [3]: 0.63%
- Animal body weight (Day 8, individual animals, 3 mg/kg): 160 g
- Animal body weight (Day 9, individual animals, 3 mg/kg): 170 g
- Animal body weight percent change (Day 10, individual animals, 3 mg/kg): 9.70%
- Animal body weight (Day 11, individual animals, 3 mg/kg): 180 g
